{"source": "patent US10017585B2", "about": "“Methods and compositions for promoting hair growth” (Momenta Pharmaceuticals, Inc., priority 2010, dated 2018)", "system": "female BALB/c mice", "experiment": "Hair regrowth score in shaved mice, MONC402 in combination with chemotherapy, 27 days", "assay_type": "in vivo", "description": "The backs of eight week old female BALB/c mice were shaved. Osmotic pumps containing either saline or MONC402 were implanted into 64 mice (32 saline, 32 MONC402). Mice were further divided into groups receiving either saline or Docetaxel (10 mg/kg) once weekly ip starting 13 days after pump implant. Additionally, there was one group of naïve mice (n=4) as well as one group of mice receiving chemotherapy alone (Docetaxel, 10 mg/kg, once weekly ip starting 6 days after pump implant, n=16) which were not subject to shaving or pump implant. Staples used to close the implantation wound were removed 7 days later. Twenty seven days after pump implant, mice were scored for hair growth over the shaved area.", "key": {"[1]": {"details": "Docetaxel (10 mg/kg weekly ip) + Saline pump, 27 days"}}, "data": [{"compound": "CC(=O)O[C@@]12CO[C@@H]1C[C@H](O)[C@@]1(C)C(=O)[C@H](O)C3=C(C)[C@@H](OC(=O)[C@H](O)[C@@H](NC(=O)OC(C)(C)C)c4ccccc4)C[C@@](O)([C@@H](OC(=O)c4ccccc4)[C@H]21)C3(C)C", "note": "[Docetaxel]", "values": [{"measurement": "Number of animals scored 4: full growth (indistinguishable from unshaved)", "setting": "Docetaxel 10 mg/kg once weekly ip alone, No shaving or pump implant", "value": "16/16"}, {"measurement": "Number of animals scored 1.5", "setting": "[1]", "value": "1/16"}, {"measurement": "Number of animals scored 2: light growth", "setting": "[1]", "value": "7/16"}, {"measurement": "Number of animals scored 2.5", "setting": "[1]", "value": "2/16"}, {"measurement": "Number of animals scored 3: patchy/heavy growth", "setting": "[1]", "value": "6/16"}]}]}
